Test results taken from PubChem BioAssay (NCI).
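1) Cells in 96-well plates. 2) Compound, 48 h, 5 concentrations. 3) Linear interpolation between surrounding doses. 4) Unreached endpoint = highest concentration. Abbreviation: GI50, concentration required for 50% inhibition of growth. TGI denotes the concentration required for complete inhibition of growth.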

system: M14 melanoma; assay: NCI-60 cell line screen, 48 h

Row | Structure (SMILES) | GI50 | TGI
1 | NC(CSC(c1ccccc1)(c1ccccc1)c1ccc2c(c1)OCO2)C(=O)O (centres undefined) | 0.239 µM | 0.648 µM
2 | C=CCc1cc(OC)c2c(c1)C(O)CC(c1ccc(OC)c(OC)c1)O2 (centres undefined) |  | > 100 µM
3 | O=C(NCCNc1nccc(-c2c(-c3cccc(O)c3)nc3sccn23)n1)c1ccccc1O | 0.342 µM | 13.6 µM
4 | CC(C)=CCCc1c(C)ccc2c1C(=O)C(=O)C(C(C)C)=C2 |  | 7.95 µM
5 | NS(=O)(=O)c1ccccc1C(=O)N/N=C(\c1nc2ccc([N+](=O)[O-])cc2[nH]c1=O)C(O)c1ccc([N+](=O)[O-])cc1 (centres undefined) |  | > 100 µM
6 | N#CC(C#N)=c1ccc(=C2NCC3CCCN23)cc1 (centres undefined) |  | > 100 µM
7 | CCOC(=O)COc1cccc2c1C(=O)CCO2 |  | > 100 µM
8 | CSc1ccc(/C=C2\CN(C)C/C(=C\c3ccc(SC)cc3)C2=O)cc1 |  | > 100 µM
9 | Nc1ccc(C(=O)N/C(=C\c2ccc3c(c2)OCO3)c2nc3[nH]c(=S)[nH]c(=O)c3[nH]2)cc1 |  | > 100 µM
10 | COC(=O)[C@@]12C3=NO[C@]1(C(=O)OC)C(O[Si](C)(C)C(C)(C)C)[C@H]1OC(C)(C)O[C@H]1[C@@H]2C(OCc1ccccc1)CC3 (some centres undefined) |  | > 100 µM
11 | O=C(N/C(=C\c1cc(Cl)ccc1Cl)c1nc2[nH]c(=S)[nH]c(=O)c2[nH]1)c1ccccc1 |  | > 56.5 µM
12 | CN(CC(=O)O)S(=O)(=O)c1ccc2ccccc2c1 |  | > 100 µM
13 | CCN(CC)CC(C(=O)Nc1c(C)cccc1C)/C(C)=N\NC(=O)C[N+](C)(C)C (centres undefined) |  | > 100 µM
14 | CC1=C(C(=O)Nc2ccccc2C)C(c2ccco2)C(C(=O)Nc2ccccc2C)=C(C)N1C |  | > 100 µM
15 | O=[S@@]1Nc2ccc(Br)cc2S1 |  | > 100 µM
16 | CC(=O)C(CN(C(C)C)C(C)C)C(c1ccccc1)c1c(O)c2ccccc2oc1=O (centres undefined) |  | > 100 µM
17 | COc1ccc2c(c1)C1(C=N2)CCN(C(C)=O)CC1 |  | > 100 µM
18 | NC(CCc1nc(-c2ccc(Cl)cc2)cs1)C(=O)O (centres undefined) |  | > 100 µM
19 | COc1ccc(-n2/c(=N/C(=S)N(C)C)ss/c2=N\C(=S)N(C)C)cc1 |  | > 100 µM
20 | CCOC(=O)C1=C(C)CC2C(=O)OC(=O)C2C1(C)C (centres undefined) |  | > 100 µM

Row | Structure (SMILES) | GI50 | TGI
21 | Oc1ccc(Cl)cc1-c1cc(-c2ccccc2Cl)[nH]n1 | 25.9 µM | > 100 µM
22 | CCOC(=O)C(Sc1ccccc1)c1c(OC)cc(=O)oc1/C=[N+](/[O-])c1ccc(N(C)C)cc1 (centres undefined) |  | 31.1 µM
23 | COc1ccc2nc3cc(Cl)ccc3c(Sc3ccccc3[N+](=O)[O-])c2c1 |  | > 100 µM
24 | O=C(O)C(Cc1ccccc1)N1C(=O)N/C(=C\c2ccc(F)cc2)C1=O (centres undefined) |  | > 100 µM
25 | C/C(CCn1[nH]c(=O)ccc1=O)=N\O |  | > 100 µM
26 | COc1ccccc1NC(=O)CC(=O)n1nc(C)c(N=Nc2ccccc2C(=O)O)c1C |  | > 100 µM
27 | CC(=O)N1[C@H](C(=O)O)CS[C@H]1c1ccncc1 |  | > 100 µM
28 | CC1(C)COC(c2ccc(C(F)(F)F)cc2C(O)c2ccc3ccccc3c2)=N1 (centres undefined) | > 100 µM | > 100 µM
29 | COc1ccc(NC(=O)c2cc(OC)cc(OC)c2)cc1 |  | > 100 µM
30 | CC1(C)OC(=O)C(=Cc2ccc(O)cc2)C(=O)O1 |  | > 100 µM
31 | COc1ccc(C2=CSc3cc(Cl)c(C)cc3S(=O)(=O)N2C(C)=O)cc1 | 49.1 µM | > 100 µM
32 | COc1ccc(/C=C\c2cc(OC)c3c(c2)OCO3)c(O)c1O |  | 11.7 µM
33 | CC(=O)OC1COC(n2c(=S)n(-c3ccc(C)cc3)c(=O)c3ccccc32)C(OC(C)=O)C1OC(C)=O (centres undefined) |  | > 100 µM
34 | COc1cccc(NC(=O)CC(=O)n2nc(C)c(N=Nc3ccccc3)c2C)c1 |  | > 100 µM
35 | CC[C@@]12CCCN3CC[C@]4(c5cccc(OC)c5N(C(C)=O)[C@@H]4CC1)[C@H]32 |  | > 100 µM
36 | CC(=O)[O][Hg][c]1c(N)c(C)cc(C)c1F | 1.55 µM | 3.29 µM
37 | O=C(O)CCSC(=O)Nc1cccc(F)c1 |  | 45.4 µM
38 | CCNC1C2(CCCCC2)NC(=O)C12CCCCC2 (centres undefined) |  | > 100 µM
39 | O=C1C2=C(SCCS2)C(=O)c2ccccc21 |  | 3.33 µM

system: COLO 205 colon; assay: NCI-60 cell line screen, 48 h

Row | Structure (SMILES) | GI50 | TGI
40 | NC(CSC(c1ccccc1)(c1ccccc1)c1ccc2c(c1)OCO2)C(=O)O (centres undefined) | 0.325 µM | 1.15 µM
41 | C=CCc1cc(OC)c2c(c1)C(O)CC(c1ccc(OC)c(OC)c1)O2 (centres undefined) |  | > 100 µM
42 | O=C(NCCNc1nccc(-c2c(-c3cccc(O)c3)nc3sccn23)n1)c1ccccc1O | 5.32 µM | 23.4 µM
43 | CC(C)=CCCc1c(C)ccc2c1C(=O)C(=O)C(C(C)C)=C2 |  | > 22 µM
44 | NS(=O)(=O)c1ccccc1C(=O)N/N=C(\c1nc2ccc([N+](=O)[O-])cc2[nH]c1=O)C(O)c1ccc([N+](=O)[O-])cc1 (centres undefined) |  | > 100 µM
45 | N#CC(C#N)=c1ccc(=C2NCC3CCCN23)cc1 (centres undefined) |  | > 100 µM
46 | CCOC(=O)COc1cccc2c1C(=O)CCO2 |  | > 100 µM
47 | CSc1ccc(/C=C2\CN(C)C/C(=C\c3ccc(SC)cc3)C2=O)cc1 |  | 61.6 µM
48 | Nc1ccc(C(=O)N/C(=C\c2ccc3c(c2)OCO3)c2nc3[nH]c(=S)[nH]c(=O)c3[nH]2)cc1 |  | > 100 µM
49 | COC(=O)[C@@]12C3=NO[C@]1(C(=O)OC)C(O[Si](C)(C)C(C)(C)C)[C@H]1OC(C)(C)O[C@H]1[C@@H]2C(OCc1ccccc1)CC3 (some centres undefined) |  | > 100 µM
50 | O=C(N/C(=C\c1cc(Cl)ccc1Cl)c1nc2[nH]c(=S)[nH]c(=O)c2[nH]1)c1ccccc1 |  | > 100 µM
51 | CN(CC(=O)O)S(=O)(=O)c1ccc2ccccc2c1 |  | > 100 µM
52 | CCN(CC)CC(C(=O)Nc1c(C)cccc1C)/C(C)=N\NC(=O)C[N+](C)(C)C (centres undefined) |  | > 100 µM
53 | CC(=O)OC(C)C(=O)C1c2cccc(O)c2C(=O)c2c(O)cc(C)cc21 (centres undefined) |  | 3.01 µM
54 | CC(=O)C(CN(C(C)C)C(C)C)C(c1ccccc1)c1c(O)c2ccccc2oc1=O (centres undefined) |  | > 100 µM
55 | COc1ccc2c(c1)C1(C=N2)CCN(C(C)=O)CC1 |  | > 100 µM
56 | NC(CCc1nc(-c2ccc(Cl)cc2)cs1)C(=O)O (centres undefined) |  | > 100 µM
57 | O=C1NC2(CCCCC2)C2CCCCC(O)C12 (centres undefined) |  | > 100 µM
58 | COc1ccc(-n2/c(=N/C(=S)N(C)C)ss/c2=N\C(=S)N(C)C)cc1 |  | > 100 µM

Row | Structure (SMILES) | GI50 | TGI
59 | CCOC(=O)C1=C(C)CC2C(=O)OC(=O)C2C1(C)C (centres undefined) |  | > 100 µM
60 | Oc1ccc(Cl)cc1-c1cc(-c2ccccc2Cl)[nH]n1 | 27.3 µM | > 100 µM
61 | CCOC(=O)C(Sc1ccccc1)c1c(OC)cc(=O)oc1/C=[N+](/[O-])c1ccc(N(C)C)cc1 (centres undefined) |  | 45.4 µM
62 | COc1ccc2nc3cc(Cl)ccc3c(Sc3ccccc3[N+](=O)[O-])c2c1 |  | 37.7 µM
63 | O=C(O)C(Cc1ccccc1)N1C(=O)N/C(=C\c2ccc(F)cc2)C1=O (centres undefined) |  | > 100 µM
64 | COc1ccccc1NC(=O)CC(=O)n1nc(C)c(N=Nc2ccccc2C(=O)O)c1C |  | > 100 µM
65 | CC(=O)N1[C@H](C(=O)O)CS[C@H]1c1ccncc1 |  | > 100 µM
66 | CC1(C)COC(c2ccc(C(F)(F)F)cc2C(O)c2ccc3ccccc3c2)=N1 (centres undefined) | > 100 µM | > 100 µM
67 | COc1ccc(NC(=O)c2cc(OC)cc(OC)c2)cc1 |  | > 42.8 µM
68 | CC1(C)OC(=O)C(=Cc2ccc(O)cc2)C(=O)O1 |  | > 100 µM
69 | COc1ccc(C2=CSc3cc(Cl)c(C)cc3S(=O)(=O)N2C(C)=O)cc1 | 38.5 µM | > 100 µM
70 | COc1ccc(/C=C\c2cc(OC)c3c(c2)OCO3)c(O)c1O |  | 45.1 µM
71 | CC(=O)OC1COC(n2c(=S)n(-c3ccc(C)cc3)c(=O)c3ccccc32)C(OC(C)=O)C1OC(C)=O (centres undefined) |  | > 100 µM
72 | COc1cccc(NC(=O)CC(=O)n2nc(C)c(N=Nc3ccccc3)c2C)c1 |  | > 100 µM
73 | CC[C@@]12CCCN3CC[C@]4(c5cccc(OC)c5N(C(C)=O)[C@@H]4CC1)[C@H]32 |  | > 100 µM
74 | CC(=O)[O][Hg][c]1c(N)c(C)cc(C)c1F | 1.91 µM | 3.53 µM
75 | O=C(O)CCSC(=O)Nc1cccc(F)c1 |  | > 100 µM
76 | O=C1C2=C(SCCS2)C(=O)c2ccccc21 |  | 2.96 µM
77 | c1cc2c(cc1NC1=NCCO1)CCC2 |  | > 10 µM

system: UACC-62 melanoma; assay: NCI-60 cell line screen, 48 h

Row | Structure (SMILES) | GI50 | TGI
78 | NC(CSC(c1ccccc1)(c1ccccc1)c1ccc2c(c1)OCO2)C(=O)O (centres undefined) | 0.57 µM | > 62.9 µM
79 | C=CCc1cc(OC)c2c(c1)C(O)CC(c1ccc(OC)c(OC)c1)O2 (centres undefined) |  | > 100 µM
80 | O=C(NCCNc1nccc(-c2c(-c3cccc(O)c3)nc3sccn23)n1)c1ccccc1O | 0.181 µM | 4.91 µM
81 | NS(=O)(=O)c1ccccc1C(=O)N/N=C(\c1nc2ccc([N+](=O)[O-])cc2[nH]c1=O)C(O)c1ccc([N+](=O)[O-])cc1 (centres undefined) |  | > 100 µM
82 | N#CC(C#N)=c1ccc(=C2NCC3CCCN23)cc1 (centres undefined) |  | > 100 µM
83 | CCOC(=O)COc1cccc2c1C(=O)CCO2 |  | > 100 µM
84 | CSc1ccc(/C=C2\CN(C)C/C(=C\c3ccc(SC)cc3)C2=O)cc1 |  | > 100 µM
85 | Nc1ccc(C(=O)N/C(=C\c2ccc3c(c2)OCO3)c2nc3[nH]c(=S)[nH]c(=O)c3[nH]2)cc1 |  | > 100 µM
86 | COC(=O)[C@@]12C3=NO[C@]1(C(=O)OC)C(O[Si](C)(C)C(C)(C)C)[C@H]1OC(C)(C)O[C@H]1[C@@H]2C(OCc1ccccc1)CC3 (some centres undefined) |  | > 100 µM
87 | O=C(N/C(=C\c1cc(Cl)ccc1Cl)c1nc2[nH]c(=S)[nH]c(=O)c2[nH]1)c1ccccc1 |  | > 92.9 µM
88 | CN(CC(=O)O)S(=O)(=O)c1ccc2ccccc2c1 |  | > 100 µM
89 | CCN(CC)CC(C(=O)Nc1c(C)cccc1C)/C(C)=N\NC(=O)C[N+](C)(C)C (centres undefined) |  | > 100 µM
90 | CC1=C(C(=O)Nc2ccccc2C)C(c2ccco2)C(C(=O)Nc2ccccc2C)=C(C)N1C |  | > 100 µM
